Results from patent US20130225539A1, “METHOD FOR PRODUCING CRYSTALLINE 5-AMINOSALICYLIC ACID” (Pharmazell GMBH, priority 2010, published 2013).
Read-outs that look alike come from different tables or passages of the source.

Legend:
Assay type in all cases: physicochemical
[1] = Bulk density (USP 616, Method 1); conditions: crystalline powder
Protocol: (§1) The bulk density and tapped density are measured by methods known to the skilled person, such as those described in the USP (“United States Pharmacopeia”) monograph, e.g., USP 27, Vol. 1, pp. 226 to 227, May 1, 2009-Apr. 30, 2010, Bulk Density 616, Method 1, Tapped Density 616, Method 2. The measurement of the grain size distribution is effected according to the protocols of European Pharmacopeia, Supplement 6.6, Chapter 2.9.31 “Particle Size Analysis by Laser Light Diffraction” pp. 5103-5107.

[2] = Tapped density (USP 616, Method 2); conditions: crystalline powder
Protocol: as §1

[3] = Grain size distribution by laser light diffraction (Ph. Eur. 2.9.31)
Protocol: as §1
(§2) The crystals are described by their particle size distribution as observed by laser diffraction, their optical micrograph image and their aspect ratio which can be determined, for example, by means of image analysis using the Malvern Symex FPIA 3000.

[4] = Crystal shape by image analysis (Malvern Sysmex FPIA 3000): aspect ratio, circularity; conditions: for Aspect ratio (width/length; w/l): main fraction of the crystals
Text: as §2
The aspect ratio (width/length; w/l) is expressed by a proportion. In the case of the 5-ASA according to the invention having a particularly high bulk density, the main fraction of the crystals has an aspect ratio around 0.5. From this, a width to length ratio of w/l of 1:2 can be calculated. In the 5-ASA having a high bulk density according to the invention, the aspect ratio is around 0.36, thus corresponding to a width to length ratio of 1:3. The different aspect ratios of the 5-ASA crystal fractions according to the invention having high and particularly high bulk densities bring about the different bulk and tapped densities and the differently broad grain size distributions seen in the laser diffractograms according to FIG. 10 and FIG. 11.
The measured value of circularity describes the deviation of the crystal shape from ideal spherical shape. A value of 1 corresponds to an ideal sphere.

[5] = listed as 5-ASA coarse crystals

SMILES	Bulk density [1]	Tapped density [2]	Grain size distribution X(10) [3]	Grain size distribution X(50) [3]	Grain size distribution X(90) [3]	Circularity ([4]; 1 = ideal sphere)	Aspect ratio (width/length; w/l) ([4]; listed as 5-ASA according to the invention having a particularly high bulk density)	Bulk density ([1]; listed as 5-ASA fine crystals)	Tapped density ([2]; listed as 5-ASA fine crystals)	Grain size distribution X(10) ([3]; listed as 5-ASA fine crystals)	Grain size distribution X(50) ([3]; listed as 5-ASA fine crystals)	Grain size distribution X(90) ([3]; listed as 5-ASA fine crystals)	Bulk density [1, 5]	Tapped density [2, 5]	Grain size distribution X(10) [3, 5]	Grain size distribution X(50) [3, 5]	Grain size distribution X(90) [3, 5]	Aspect ratio (width/length; w/l) ([4]; listed as 5-ASA having a high bulk density according to the invention)
Nc1ccc(O)c(C(=O)O)c1 [Example 1, 5-aminosalicylic acid]	400 to 500 g/L	600 to 800 g/L	X(10) = 7-10 μm	25-35 μm	80-90 μm	~0.8	around 0.5	–	–	–	–	–	–	–	–	–	–	–
Nc1ccc(O)c(C(=O)O)c1 [5-ASA fine acicular crystals, 5-aminosalicylic acid]	150 to 190 g/L	300 to 390 g/L	X (10) = 2-6 μm	X (50) = 8-20 μm	X (90) = 25-50 μm	–	–	150 to 190 g/L	300 to 390 g/L	X(10) = 2-6 μm	8-20 μm	25-50 μm	–	–	–	–	–	–
Nc1ccc(O)c(C(=O)O)c1 [5-ASA coarse acicular crystals, 5-aminosalicylic acid]	250 to 270 g/L	450 to 480 g/L	X (10) = 10-15 μm	X (50) = 50-60 μm	X (90) = 200-220 μm	–	–	–	–	–	–	–	250 to 270 g/L	450 to 480 g/L	X(10) = 10-15 μm	50-60 μm	200-220 μm	–
Nc1ccc(O)c(C(=O)O)c1 [Example 2, 5-aminosalicylic acid]	300 to 400 g/L	510 to 700 g/L	X(10) = 3-5 μm	15-45 μm	90-100 μm	–	–	–	–	–	–	–	–	–	–	–	–	around 0.36
